Counter-ions that a name gives are not always drawn.
Experiments:
[1] = biological target: T1, indoleamine 2, 3-dioxygenase (IDO1) (Homo sapiens, UniProt P14902); assay: PBMC IDOi assay (kynurenine detection by mass spectrometry); format: cell-based; settings: IFN-γ and LPS stimulated human PBMC, 2 days
Experimental: Compounds of the present invention were tested via high-throughput cellular assays utilizing detection of kynurenine via mass spectrometry and cytotoxicity as end-points. For the mass spectrometry and cytotoxicity assays, human peripheral blood mononuclear cells (PBMC) (PB003F; AllCells®, Alameda, Calif.) were stimulated with human interferon-γ (IFN-γ) (Sigma-Aldrich Corporation, St. Louis, Mo.) and lipopolysaccharide from Salmonella minnesota (LPS) (Invivogen, San Diego, Calif.) to induce the expression of indoleamine 2, 3-dioxygenase (IDO1). Compounds with IDO1 inhibitory properties decreased the amount of kynurenine produced by the cells via the tryptophan catabolic pathway. Cellular toxicity due to the effect of compound treatment was measured using CellTiter-Glo® reagent (CTG) (Promega Corporation, Madison, Wis.), which is based on luminescent detection of ATP, an indicator of metabolically active cells.
In preparation for the assays, test compounds were serially diluted 3-fold in DMSO from a typical top concentration of 5 mM and plated at 0.5 μL in 384-well, polystyrene, clear bottom, tissue culture treated plates with lids (Greiner Bio-One, Kremsmünster, Austria) to generate 11-point dose response curves. Low control wells (0% kynurenine or 100% cytotoxicity) contained either 0.5 μL of DMSO in the presence of unstimulated (−IFN-γ/−LPS) PBMCs for the mass spectrometry assay or 0.5 μL of DMSO in the absence of cells for the cytotoxicity assay, and high control wells (100% kynurenine or 0% cytotoxicity) contained 0.5 μL of DMSO in the presence of stimulated (+IFN-γ/+LPS) PBMCs for both the mass spectrometry and cytotoxicity assays.
Frozen stocks of PBMCs were washed and recovered in RPMI 1640 medium (Thermo Fisher Scientific, Inc., Waltham, Mass.) supplemented with 10% v/v heat-inactivated fetal bovine serum (FBS) (Thermo Fisher Scientific, Inc., Waltham, Mass.), and 1× penicillin-streptomycin antibiotic solution (Thermo Fisher Scientific, Inc., Waltham, Mass.). The cells were diluted to 1,000,000 cells/mL in the supplemented RPMI 1640 medium. 50 μL of either the cell suspension, for the mass spectrometry assay, or medium alone, for the cytotoxicity assay, were added to the low control wells, on the previously prepared 384-well compound plates, resulting in 50,000 cells/well or 0 cells/well respectively. IFN-γ and LPS were added to the remaining cell suspension at final concentrations of 100 ng/ml and 50 ng/ml respectively, and 50 μL of the stimulated cells were added to all remaining wells on the 384-well compound plates. The plates, with lids, were then placed in a 37° C., 5% CO2 humidified incubator for 2 days.
Following incubation, the 384-well plates were removed from the incubator and allowed to equilibrate to room temperature for 30 minutes. For the cytotoxicity assay, CellTiter-Glo® was prepared according to the manufacturer's instructions, and 40 μL were added to each plate well. After a twenty minute incubation at room temperature, luminescence was read on an EnVision® Multilabel Reader (PerkinElmer Inc., Waltham, Mass.). For the mass spectrometry assay, 10 μL of supernatant from each well of the compound-treated plates were added to 40 μL of acetonitrile, containing 10 μM of an internal standard for normalization, in 384-well, polypropylene, V-bottom plates (Greiner Bio-One, Kremsmünster, Austria) to extract the organic analytes. Following centrifugation at 2000 rpm for 10 minutes, 10 μL from each well of the acetonitrile extraction plates were added to 90 μL of sterile, distilled H2O in 384-well, polypropylene, V-bottom plates for analysis of kynurenine and the internal standard on the RapidFire 300 (Agilent Technologies, Santa Clara, Calif.) and 4000 QTRAP MS (SCIEX, Framingham, Mass.). MS data were integrated using Agilent Technologies' RapidFire Integrator software, and data were normalized for analysis as a ratio of kynurenine to the internal standard. […]

[2] = biological target: T1, indoleamine 2, 3-dioxygenase (IDO1); assay: HeLa IDOi assay (kynurenine detection by mass spectrometry); format: cell-based; design: human epithelial HeLa cells (CCL-2; host or cells: HeLa cells stimulated with human IFN-γ; settings: IFN-γ stimulated human epithelial HeLa cells, 2 days
How it was run: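 HeLa cells (5,000/well) stimulated with 10 nM IFN-γ to induce IDO1 were exposed to 11-point compound dilutions for 2 days at 37 °C. Supernatant kynurenine was measured by RapidFire MS as a ratio to internal standard; cytotoxicity was read with CellTiter-Glo. Four-parameter fits gave pIC50 and pCC50.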

T1 sequence (P14902 whole entry): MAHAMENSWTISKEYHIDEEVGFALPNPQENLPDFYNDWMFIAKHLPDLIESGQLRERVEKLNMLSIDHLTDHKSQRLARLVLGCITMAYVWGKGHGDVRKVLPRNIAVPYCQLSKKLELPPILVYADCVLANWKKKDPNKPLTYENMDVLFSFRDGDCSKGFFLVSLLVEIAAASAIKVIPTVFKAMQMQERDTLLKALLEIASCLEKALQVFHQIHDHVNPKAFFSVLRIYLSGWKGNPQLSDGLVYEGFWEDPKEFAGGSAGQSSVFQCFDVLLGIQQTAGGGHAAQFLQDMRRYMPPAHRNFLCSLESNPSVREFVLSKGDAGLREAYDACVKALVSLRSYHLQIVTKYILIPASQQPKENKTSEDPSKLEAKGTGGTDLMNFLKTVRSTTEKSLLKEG

Structure (SMILES)	EC50 [1] [nM]	EC50 [2] [nM]
CC(C)CN(c1ccc([C@@H](C)CC(=O)O)cc1Nc1nc(Cl)ns1)C1CCCCC1 [Example 39, (S)-3-(3-((3-chloro-1,2,4-thiadiazol-5-yl)amino)-4-(cyclohexyl(isobutyl)amino)phenyl)butanoic acid]	1.26	12.6
CC(C)CN(c1ccc([C@H](C)CC(=O)O)cc1Nc1nc(Cl)ns1)C1CCCCC1 [Example 40, (R)-3-(3-((3-chloro-1,2,4-thiadiazol-5-yl)amino)-4-(cyclohexyl(isobutyl)amino)phenyl)butanoic acid]	0.631	6.31
CC(C)CN(CC(C)C)c1ccc([C@@H](C)CC(=O)O)cc1Nc1nc(Cl)ns1 [Example 41, (S)-3-(3-((3-chloro-1,2,4-thiadiazol-5-yl)amino)-4-(diisobutylamino)phenyl)butanoic acid]	10	63.1
CC(C)CN(CC(C)C)c1ccc([C@H](C)CC(=O)O)cc1Nc1nc(Cl)ns1 [Example 42, (R)-3-(3-((3-chloro-1,2,4-thiadiazol-5-yl)amino)-4-(diisobutylamino)phenyl)butanoic acid]	7.94	39.8
Cc1nnc(Nc2cc(C(C)CC(=O)O)ccc2N(CC(C)C)CC(C)C)[nH]1 (centres unmarked) [Example 47, 3-(4-(diisobutylamino)-3-((5-methyl-4H-1,2,4-triazol-3-yl)amino)phenyl)butanoic acid]	200	158
CC(C)CN(CC(C)C)c1ccc(C(C)CC(=O)O)cc1Nc1nnc(C2CC2)[nH]1 (centres unmarked) [Example 48, 3-(3-((5-cyclopropyl-4H-1,2,4-triazol-3-yl)amino)-4-(diisobutylamino)phenyl)butanoic acid]	25.1	63.1
CC(C)CN(c1ccc([C@H](C)CC(=O)O)cc1Nc1nc(C(F)(F)F)cs1)C1CCCCC1 [Example 49, (R)-3-(4-(cyclohexyl(isobutyl)amino)-3-((4-(trifluoromethyl)thiazol-2-yl)amino)phenyl)butanoic acid]	0.794	3.16
CC(C)CN(c1ccc([C@H](C)CC(=O)O)cc1Nc1nnc(C2CC2)[nH]1)C1CCCCC1 [Example 50, (R)-3-(4-(cyclohexyl(isobutyl)amino)-3-((5-cyclopropyl-4H-1,2,4-triazol-3-yl)amino)phenyl)butanoic acid]	2.51	10
CC(C)CN(CC(C)C)c1ccc([C@@H](C)CC(=O)O)cc1Nc1nc(C(F)(F)F)ns1 [Example 53, (S)-3-(4-(diisobutylamino)-3-((3-(trifluoromethyl)-1,2,4-thiadiazol-5-yl)amino)phenyl)butanoic acid]	3.16	10
CC(C)CN(CC(C)C)c1ccc([C@H](C)CC(=O)O)cc1Nc1nc(C(F)(F)F)ns1 [Example 54, (R)-3-(4-(diisobutylamino)-3-((3-(trifluoromethyl)-1,2,4-thiadiazol-5-yl)amino)phenyl)butanoic acid]	2	6.31
CC(C)CN(CC(C)C)c1ccc(C(C)CC(=O)O)cc1Nc1nnc(C(F)(F)F)s1 (centres unmarked) [Example 55, 3-(4-(diisobutylamino)-3-((5-(trifluoromethyl)-1,3,4-thiadiazol-2-yl)amino)phenyl)butanoic acid, 2,2,2-trifluoroacetic acid salt]	0.631	3.16
CC(C)CN(c1ccc([C@H](C)CC(=O)O)cc1Nc1nnc(C2CC2)s1)C1CCCCC1 [Example 56, (R)-3-(4-(cyclohexyl(isobutyl)amino)-3-((5-cyclopropyl-1,3,4-thiadiazol-2-yl)amino)phenyl)butanoic acid]	0.251	3.16
CC(C)CN(c1ccc([C@@H](C)CC(=O)O)cc1Nc1nnc(C2CC2)s1)C1CCCCC1 [Example 57, (S)-3-(4-(cyclohexyl(isobutyl)amino)-3-((5-cyclopropyl-1,3,4-thiadiazol-2-yl)amino)phenyl)butanoic acid]	0.631	2

The remaining lines, values ahead:

EC50 [1] [nM]	EC50 [2] [nM]	Structure (SMILES)
158	316	CC(C)CN(CC(C)C)c1ccc(C(C)CC(=O)O)cc1Nc1cnccn1 (centres unmarked) [Example 58, 3-(4-(diisobutylamino)-3-(pyrazin-2-ylamino)phenyl)butanoic acid]
200	501	CC(C)CN(c1ccc(C(C)CC(=O)O)cc1NCc1ccco1)C1CCCCC1 (centres unmarked) [Example 59, 3-(4-(cyclohexyl(isobutyl)amino)-3-((furan-2-ylmethyl)amino)phenyl)butanoic acid]
398	501	Cc1nc(C(F)(F)F)sc1Nc1cc(C(C)CC(=O)O)ccc1N(CC(C)C)CC(C)C (centres unmarked) [Example 60, 3-(4-(diisobutylamino)-3-((4-methyl-2-(trifluoromethyl)thiazol-5-yl)amino)phenyl)butanoic acid]
31.6	63.1	CC(C)CN(CC(C)C)c1ccc(C(C)CC(=O)O)cc1Nc1cnc(C2CC2)s1 (centres unmarked) [Example 61, 3-(3-((2-cyclopropylthiazol-5-yl)amino)-4-(diisobutylamino)phenyl)butanoic acid]
2.51	3.98	CC(C)CN(c1ccc([C@@H](C)CC(=O)O)cc1Nc1ccnc(Cl)n1)C1CCCCC1 [Example 62, (S)-3-(3-((2-chloropyrimidin-4-yl)amino)-4-(cyclohexyl(isobutyl)amino)phenyl)butanoic acid]
20	31.6	CC(C)CN(c1ccc([C@H](C)CC(=O)O)cc1Nc1ccnc(Cl)n1)C1CCCCC1 [Example 63, (R)-3-(3-((2-chloropyrimidin-4-yl)amino)-4-(cyclohexyl(isobutyl)amino)phenyl)butanoic acid]
0.794	6.31	CC(C)CN(c1ccc(C(CC(=O)O)C(F)(F)F)cc1Nc1nc(Cl)ns1)C1CCCCC1 (centres unmarked) [Example 71, 3-(3-((3-Chloro-1,2,4-thiadiazol-5-yl)amino)-4-(cyclohexyl(isobutyl)amino)phenyl)-4,4,4-trifluorobutanoic Acid]
63.1	31.6	CC(C)CN(c1ccc(C(C)CC(=O)O)cc1NC1=N[C@H](C(F)(F)F)CS1)C1CCCCC1 (stereo partly drawn) [Example 75, 3-(4-(Cyclohexyl(isobutyl)amino)-3-(((R)-4-(trifluoromethyl)-4,5-dihydrothiazol-2-yl)amino)phenyl)butanoic Acid]
20	31.6	CC(C)CN(c1ccc(C(C)CC(=O)O)cc1NC1=N[C@@H](C(F)(F)F)CO1)C1CCCCC1 (stereo partly drawn) [Example 76, 3-(4-(Cyclohexyl(isobutyl)amino)-3-(((R)-4-(trifluoromethyl)-4,5-dihydrooxazol-2-yl)amino)phenyl)butanoic acid]

From US10472336B2, “Modulators of indoleamine 2,3-dioxygenase” (GlaxoSmithKline Intellectual Property (No.2) Limited, priority 2015, dated 2019)
